Assay results: US4180669A, “2-(N-phenethyl-4-piperidino)-5-pentyl resorcinol” (Abbott Laboratories, priority 1978, dated 1979)
Structures can show the parent of a compound that is named as a salt. Where two headings read alike, the source gives them in different places.

System: pylorous ligated rats
Assay: Antisecretory activity in the pylorous ligated rat model
Type: in vivo, male Sprague-Dawley rats
Details: for inhibition in vivo at 50 mg/kg / inhibition in vivo at 100 mg/kg / inhibition in vivo at 12.5 mg/kg / inhibition in vivo at 25 mg/kg: Rattus norvegicus, 4 h; for inhibition in vivo at 12.5 mg/kg: oral dose 12.5 mg/kg
Protocol: To determine the antisecretory activity of the present compounds, the compounds were tested for such activity in pylorous ligated rats. In this test, male Sprague-Dawley rats weighing 170-190 g. were fasted for 24 hours. Water was allowed ad libitum. All groups were comprised of six rats. […] Water was withheld after drug administration. Ligation of the pyrloric sphincter was performed under ether anesthesia, and four hours after ligation the animals were sacrificed with CO2. The stomach was dissected out and the contents were expelled into a graduated centrifuge tube. The samples were centrifuged and the volume, less debris, was measured. Sample aliquots were titrated with 0.05 N NaOH to determine acid concentration. Pepsin activity was determined on an auto analyzer using hemoglobin as the substrate by the method of Anson. Group means for volume, acid and pepsin concentrations, and pepsin outputs were compared for statistically significant differences from control means by Student's t-test.

[1] = oral dose 50 mg/kg, negative sign means stimulated
[2] = oral dose 50 mg/kg, negative sign means stimulated, read-out: Percent inhibition of pepsin
[3] = oral dose 50 mg/kg, negative sign means stimulated, read-out: Percent inhibition of pepsin output
[4] = oral dose 50 mg/kg, read-out: Percent inhibition of acid output
[5] = oral dose 50 mg/kg, read-out: Percent inhibition of acidity
[6] = oral dose 50 mg/kg, read-out: Percent inhibition of volume
[7] = oral dose 100 mg/kg, negative sign means stimulated, read-out: Percent inhibition of pepsin
[8] = oral dose 100 mg/kg, read-out: Percent inhibition of acid output
[9] = oral dose 100 mg/kg, read-out: Percent inhibition of acidity
[10] = oral dose 100 mg/kg, read-out: Percent inhibition of pepsin output
[11] = oral dose 100 mg/kg, read-out: Percent inhibition of volume
[12] = negative sign means stimulated, read-out: Percent inhibition of pepsin
[13] = read-out: Percent inhibition of acid output
[14] = read-out: Percent inhibition of acidity
[15] = read-out: Percent inhibition of pepsin output
[16] = read-out: Percent inhibition of volume
[17] = oral dose 25 mg/kg, negative sign means stimulated, read-out: Percent inhibition of pepsin
[18] = oral dose 25 mg/kg, read-out: Percent inhibition of acid output
[19] = oral dose 25 mg/kg, read-out: Percent inhibition of acidity
[20] = oral dose 25 mg/kg, read-out: Percent inhibition of pepsin output
[21] = oral dose 25 mg/kg, read-out: Percent inhibition of volume

Compound	inhibition in vivo at 50 mg/kg [2]	inhibition in vivo at 50 mg/kg [3]	inhibition in vivo at 50 mg/kg [4]	inhibition in vivo at 50 mg/kg [5]	inhibition in vivo at 50 mg/kg [6]	other results
2-(N-Propargyl-1,2,3,4-tetrahydro-4-pyridyl)-3-methoxy-5-(1,2-dimethylheptyl)phenol [XXIX]	–	–	–	–	–	Percent inhibition of acid output (oral dose 25 mg/kg): 7.8%; Percent inhibition of acidity (oral dose 25 mg/kg): 18.6%; Percent inhibition of volume (oral dose 25 mg/kg): -13.0%; Percent inhibition of acid output (oral dose 50 mg/kg): 45.6%; Percent inhibition of acidity (oral dose 50 mg/kg): 50.6%; Percent inhibition of volume (oral dose 50 mg/kg): -5.7%; Percent inhibition of pepsin [1]: 21.0%; Percent inhibition of pepsin output [1]: 23.9%; Percent inhibition of acid output (oral dose 100 mg/kg): 49.5%; Percent inhibition of acidity (oral dose 100 mg/kg): 58.1%; Percent inhibition of volume (oral dose 100 mg/kg): -21.8%
CCCCCC(C)C(C)c1cc(O)c(C2CCN(CCc3ccccc3)CC2)c(O)c1 (stereo not shown) [Example XXII, 2-(N-phenethyl-4-piperidino)-5-(1,2-dimethylheptyl) resorcinol hydrochloride]	-7.1%	30.9%	37.6%	8.5%	37.3%	–
CC(C)c1cc(O)c(C2=CCN(Cc3ccccc3)CC2)c(O)c1 [Example XI, 2-(N-Benzyl-1,2,3,6-tetrahydro-4-pyridyl)-5-isopropyl resorcinol hydrochloride]	-36%	47.1%	68.2%	22.8%	63.8%	–
CCCCCc1cc(O)c(C2=CCN(CCc3ccccc3)CC2)c(O)c1 [Example XIX, 2-(N-Phenethyl-1,2,3,6-tetrahydro-4-pyridyl)-5-pentyl resorcinol hydrochloride]	6.9%	31.7%	27.3%	4.2%	25.5%	–
2-(N-Methyl-1,2,3,4-tetrahydro-4-pyridyl)-5-(methyl) resorcinol [IX]	–	–	–	–	–	Percent inhibition of acid output (oral dose 50 mg/kg): 31.7%; Percent inhibition of acidity (oral dose 50 mg/kg): 12.1%; Percent inhibition of volume (oral dose 50 mg/kg): 21.9%; Percent inhibition of pepsin [1]: -7.2%; Percent inhibition of pepsin output [1]: 17.0%
CCCCCC(C)C(C)c1cc(O)c(C2CCN(C)CC2)c(O)c1 (stereo not shown) [XVII, 2-(N-Methyl-4-piperidino)-5-(1,2-dimethylheptyl) resorcinol hydrochloride]	40.5%	40.6%	38.5%	38.1%	0.3%	–
CC(C)C(C)c1cc(O)c(C2=CCN(C)CC2)c(O)c1 (stereo not shown) [Example VII, 2-(N-Methyl-1,2,3,6-tetrahydro-4-pyridyl)-5-(1,2-dimethylpropyl) resorcinol hydrochloride]	-24.6%	-9.9%	15.8%	7.1%	9.5%	–
CCCCCC(C)C(C)c1cc(O)c(C2=CCNCC2)c(O)c1 (stereo not shown) [Example XV, 2-(1,2,3,6-Tetrahydro-4-pyridyl)-5-(1,2-dimethylheptyl) resorcinol hydrochloride]	53.8%	54.3%	22.8%	24.3%	-1.4%	inhibition in vivo at 100 mg/kg [7]: 34.5%; inhibition in vivo at 100 mg/kg [8]: 52.8%; inhibition in vivo at 100 mg/kg [9]: 43.6%; inhibition in vivo at 100 mg/kg [10]: 41.4%; inhibition in vivo at 100 mg/kg [11]: 12.9%
CCCCCC(C)C(C)c1cc(O)c(C2CCNCC2)c(OC)c1 (stereo not shown) [Example XXX, 2-(4-Piperidino)-3-methoxy-5-(1,2-dimethylheptyl)phenol hydrochloride]	–	–	34.7%	39.9%	-8.9%	–
CC(C)c1cc(O)c(C2=CCN(C(C)C)CC2)c(O)c1 [XIII, 2-(N-Isopropyl-1,2,3,6-tetrahydro-4-pyridyl)-5-isopropyl resorcinol hydrochloride]	7.1%	36.4%	37.9%	9.7%	32%	–
CCCCCC(C)C(C)c1cc(O)c(C2=CC3CCC(C2)N3C)c(O)c1 (stereo not shown) [Example XXV, 2-(N-Methyl-2,6-ethylidene-1,2,3,6-tetrahydro-4-pyridyl)-5-(1,2-dimethylheptyl) resorcinol hydrochloride]	1%	11%	29.4%	21.2%	9.7%	–
CCCCCC(C)C(C)c1cc(O)c(C2=CCN(C)CC2)c(OC)c1 (stereo not shown) [Example XXVI, 2-(N-Methyl-1,2,3,6-tetrahydro-4-pyridyl)-3-methoxy-5-(1,2-dimethylheptyl)phenol hydrochloride]	12.6%	8.6%	53.7%	53.1%	-0.3%	–
CCCCCc1cc(O)c(C2CCN(CCc3ccccc3)CC2)c(O)c1 [Example XXI, 2-(N-Phenethyl-4-piperidino)-5-pentyl resorcinol hydrochloride]	-6.2%	56.4%	64.1%	15%	58.2%	inhibition in vivo at 12.5 mg/kg [12]: 11.4%; inhibition in vivo at 12.5 mg/kg [13]: 0.5%; inhibition in vivo at 12.5 mg/kg [14]: -4%; inhibition in vivo at 12.5 mg/kg [15]: 19.9%; inhibition in vivo at 12.5 mg/kg [16]: 6.5%; inhibition in vivo at 25 mg/kg [17]: 11.4%; inhibition in vivo at 25 mg/kg [18]: 32.7%; inhibition in vivo at 25 mg/kg [19]: 5.8%; inhibition in vivo at 25 mg/kg [20]: 41.4%; inhibition in vivo at 25 mg/kg [21]: 31.2%; inhibition in vivo at 100 mg/kg [7]: -12.7%; inhibition in vivo at 100 mg/kg [8]: 66.6%; inhibition in vivo at 100 mg/kg [9]: 16.1%; inhibition in vivo at 100 mg/kg [10]: 60.6%; inhibition in vivo at 100 mg/kg [11]: 61.8%
CCCCCC(C)C(C)c1cc(O)c(C2=CCN(Cc3ccccc3)CC2)c(OC)c1 (stereo not shown) [Example XXVII, 2-(N-Benzyl-1,2,3,6-tetrahydro-4-pyridyl)-3-methoxy-5-(1,2-dimethylheptyl)phenol hydrochloride]	12.1%	-8.6%	-27.8%	-5.6%	–	–
CCCCCC(C)C(C)c1cc(O)c(C2=CCN(C)CC2)c(O)c1 (stereo not shown) [Example X, 2-(N-Methyl-1,2,3,6-tetrahydro-4-pyridyl)-5-(1,2-dimethylheptyl) resorcinol]	41.5%	48%	69.3%	66.8%	7.7%	inhibition in vivo at 12.5 mg/kg [12]: 23.4%; inhibition in vivo at 12.5 mg/kg [13]: 10.8%; inhibition in vivo at 12.5 mg/kg [14]: 13.1%; inhibition in vivo at 12.5 mg/kg [15]: 22.6%; inhibition in vivo at 12.5 mg/kg [16]: -2.8%; inhibition in vivo at 25 mg/kg [17]: 45.1%; inhibition in vivo at 25 mg/kg [18]: 22.9%; inhibition in vivo at 25 mg/kg [19]: 20.9%; inhibition in vivo at 25 mg/kg [20]: 46.4%; inhibition in vivo at 25 mg/kg [21]: 1.4%; inhibition in vivo at 100 mg/kg [7]: 63%; inhibition in vivo at 100 mg/kg [8]: 69%; inhibition in vivo at 100 mg/kg [9]: 68.4%; inhibition in vivo at 100 mg/kg [10]: 63.2%; inhibition in vivo at 100 mg/kg [11]: 1.7%
CCCCCc1cc(O)c(C2CCN(C)CC2)c(O)c1 [XVIII, 2-(N-Methyl-4-piperidino)-5-pentyl resorcinol hydrochloride]	5.6%	1.4%	4.5%	8.2%	-5.2%	–
